For 13 compounds, IC50 results are on record in patent US20260022142A1, “MACROCYCLIC IMMUNOMODULATORS” (Bristol-Myers Squibb Company, priority 2022, published 2026).

Bridge positions count the residues as written; N and C are the ends. Square brackets hold non-standard residues; d marks the D form. Peptide text beside a SMILES is read from it. * marks the point of attachment. Bip = N[C@@H](Cc1ccc(-c2ccccc2)cc1)C(=O)O; Phe(3-Me) = Cc1cccc(C[C@H](N)C(=O)O)c1; 3Pal = N[C@@H](Cc1cccnc1)C(=O)O; 4Pal = N[C@@H](Cc1ccncc1)C(=O)O; Cha = N[C@@H](CC1CCCCC1)C(=O)O; Cit = NC(=O)NCCC[C@H](N)C(=O)O; Carboxymethyl = O=C(O)C*; Orn = NCCC[C@H](N)C(=O)O; Aun = NCCCCCCCCCCC(=O)O; Dab = NCC[C@H](N)C(=O)O; Dap = NC[C@H](N)C(=O)O

This assay deals with T1, PD-1/PD-L1 interaction (PE-labeled human PD-L1-Ig binding to Jurkat cell line over-expressing human PD-1) (Homo sapiens, UniProt Q15116).
T1 construct: expressed in transfected cells; host or cells: Jurkat
T1 sequence (Q15116 25-288): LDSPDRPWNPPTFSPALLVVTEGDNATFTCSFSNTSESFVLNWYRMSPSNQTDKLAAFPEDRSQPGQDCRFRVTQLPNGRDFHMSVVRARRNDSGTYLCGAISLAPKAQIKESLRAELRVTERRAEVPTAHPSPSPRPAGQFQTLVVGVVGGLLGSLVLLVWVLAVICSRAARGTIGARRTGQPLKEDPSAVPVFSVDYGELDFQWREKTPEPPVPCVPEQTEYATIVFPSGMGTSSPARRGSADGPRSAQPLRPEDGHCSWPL
Put plainly: Jurkat-PD-1 Cell Binding High-Content Screening Assay (CBA). In kind it is cell-based. Particulars: Jurkat cell line over-expressing human PD-1; PE-labeled PD-L1-Ig 20 nM final; read-out: Jurkat hPD1-PDL1 IC50. The essentials:
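Jurkat cells over-expressing human PD-1 (8×10^3 per well, DMEM/10% FCS) preincubated with compound 2 h at 37° C, then PE-labeled human PD-L1-Ig (20 nM final) added for 1 h. Cells fixed with paraformaldehyde, Hoechst-stained, and bound fluorescence quantified by high-content imaging.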
A word on the IC50: it is the midpoint of a concentration-inhibition curve. For the compound `CC(C)C[C@H]1NC(=O)[C@H](CCCN)NC(=O)[C@H](Cc2ccc(O)cc2)NC(=O)[C@H](Cc2ccc(-c3ccccc3)cc2)NC(=O)[C@H](Cc2ccc(O)cc2)NC(=O)[C@H](Cc2c[nH]c3ccccc23)NC(=O)[C@H](CC(=O)O)NC(=O)[C@H](Cc2ccc(OCC(=O)O)cc2)NC(=O)[C@H]([C@@H](C)O)NC(=O)CSC[C@@H](C(=O)N[C@@H](CCN)C(=O)NCCCCCCCCCCC(=O)O)NC(=O)[C@H](CCCNC(N)=O)NC(=O)[C@H](C(C)C)NC(=O)[C@H](CC2CCCCC2)NC(=O)[C@H](CCN)NC1=O` [Compound 2730] ({CH2CO}-TY(Carboxymethyl)DWY[Bip]Y[Orn][dL][Dab][Cha]V[Cit]C[Dab][Aun]-OH; thioether N-14), the IC50 was 15.5 nM.

As to `Cc1cccc(C[C@@H]2NC(=O)[C@H](CC(=O)O)NC(=O)[C@H](Cc3ccc(OCC(=O)O)cc3)NC(=O)[C@H](CN)NC(=O)CSC[C@@H](C(=O)N[C@@H](CCN)C(=O)NCCCCCCCCCCC(=O)O)NC(=O)[C@H]([C@@H](C)O)NC(=O)[C@H](C(C)C)NC(=O)[C@H](CC3CCCCC3)NC(=O)[C@H](CCN)NC(=O)[C@@H](CC(C)C)NC(=O)[C@H](CCCN)NC(=O)[C@H](Cc3ccc(OCC(=O)O)cc3)NC(=O)[C@H](Cc3ccc(-c4ccccc4)cc3)NC(=O)[C@H](C(C)C)NC2=O)c1` [Compound 2731] ({CH2CO}-[Dap]Y(Carboxymethyl)D[Phe(3-Me)]V[Bip]Y(Carboxymethyl)[Orn][dL][Dab][Cha]VTC[Dab][Aun]-OH; thioether N-14), the IC50 stood at 18.6 nM.

For the compound `Cc1cccc(C[C@@H]2NC(=O)[C@H](CC(=O)O)NC(=O)[C@H](Cc3ccc(OCC(=O)O)cc3)NC(=O)[C@H](CN)NC(=O)CSC[C@@H](C(=O)N[C@@H](CCN)C(=O)NCCCCCCCCCCC(=O)O)NC(=O)[C@H]([C@@H](C)O)NC(=O)[C@H](C(C)C)NC(=O)[C@H](CC3CCCCC3)NC(=O)[C@H](CCN)NC(=O)[C@@H](CC(C)C)NC(=O)[C@H](CCCN)NC(=O)[C@H](Cc3ccc(OCC(=O)O)cc3)NC(=O)[C@H](Cc3ccc(-c4ccccc4)cc3)NC(=O)[C@H](Cc3ccc(OCC(=O)O)cc3)NC2=O)c1` [Compound 2732] ({CH2CO}-[Dap]Y(Carboxymethyl)D[Phe(3-Me)]Y(Carboxymethyl)[Bip]Y(Carboxymethyl)[Orn][dL][Dab][Cha]VTC[Dab][Aun]-OH; thioether N-14), the IC50 is 21.2 nM.

Turning to `Cc1cccc(C[C@@H]2NC(=O)[C@H](CC(=O)O)NC(=O)[C@H](Cc3ccncc3)NC(=O)[C@H](Cc3ccc(OCC(=O)O)cc3)NC(=O)CSC[C@@H](C(=O)N[C@@H](CCN)C(=O)NCCCCCCCCCCC(=O)O)NC(=O)[C@H]([C@@H](C)O)NC(=O)[C@H](C(C)C)NC(=O)[C@H](CC3CCCCC3)NC(=O)[C@H](CCN)NC(=O)[C@@H](CC(C)C)NC(=O)[C@H](CCCN)NC(=O)[C@H](Cc3ccc(O)cc3)NC(=O)[C@H](Cc3ccc(-c4ccccc4)cc3)NC(=O)[C@H](C(C)C)NC2=O)c1` [Compound 2733] ({CH2CO}-Y(Carboxymethyl)[4Pal]D[Phe(3-Me)]V[Bip]Y[Orn][dL][Dab][Cha]VTC[Dab][Aun]-OH; thioether N-14), the IC50 was 42.2 nM.

With `Cc1cccc(C[C@@H]2NC(=O)[C@H](CC(=O)O)NC(=O)[C@H](Cc3ccncc3)NC(=O)[C@H](Cc3ccc(OCC(=O)O)cc3)NC(=O)CSC[C@@H](C(=O)N[C@@H](CCN)C(=O)NCCCCCCCCCCC(=O)O)NC(=O)[C@H]([C@@H](C)O)NC(=O)[C@H](C(C)C)NC(=O)[C@H](CC3CCCCC3)NC(=O)[C@H](CCN)NC(=O)[C@@H](CC(C)C)NC(=O)[C@H](CCCN)NC(=O)[C@H](Cc3ccc(O)cc3)NC(=O)[C@H](Cc3ccc(-c4ccccc4)cc3)NC(=O)[C@H](Cc3ccc(O)cc3)NC2=O)c1` [Compound 2734] ({CH2CO}-Y(Carboxymethyl)[4Pal]D[Phe(3-Me)]Y[Bip]Y[Orn][dL][Dab][Cha]VTC[Dab][Aun]-OH; thioether N-14), the IC50 was 27.2 nM.

Consider `Cc1cccc(C[C@@H]2NC(=O)[C@H](CC(=O)O)NC(=O)[C@H](Cc3ccc(OCC(=O)O)cc3)NC(=O)[C@H](CN)NC(=O)CSC[C@@H](C(=O)N[C@H](CC(=O)NCCCCCCCCCCC(=O)O)C(N)=O)NC(=O)[C@H]([C@@H](C)O)NC(=O)[C@H](C(C)C)NC(=O)[C@H](CC3CCCCC3)NC(=O)[C@H](CCN)NC(=O)[C@@H](CC(C)C)NC(=O)[C@H](CCCN)NC(=O)[C@H](Cc3ccc(O)cc3)NC(=O)[C@H](Cc3ccc(-c4ccccc4)cc3)NC(=O)[C@H](C(C)C)NC2=O)c1` [Compound 2735] ({CH2CO}-[Dap]Y(Carboxymethyl)D[Phe(3-Me)]V[Bip]Y[Orn][dL][Dab][Cha]VTC[dD](Aun)-NH2; thioether N-14), for which the IC50 was 72.4 nM.

As to `Cc1cccc(C[C@@H]2NC(=O)[C@H](CC(=O)O)NC(=O)[C@H](Cc3ccc(OCC(=O)O)cc3)NC(=O)[C@H](CN)NC(=O)CSC[C@@H](C(=O)N[C@H](CC(=O)NCCCCCCCCCCC(=O)O)C(N)=O)NC(=O)[C@H]([C@@H](C)O)NC(=O)[C@H](C(C)C)NC(=O)[C@H](CC3CCCCC3)NC(=O)[C@H](CCN)NC(=O)[C@@H](CC(C)C)NC(=O)[C@H](CCCN)NC(=O)[C@H](Cc3ccc(O)cc3)NC(=O)[C@H](Cc3ccc(-c4ccccc4)cc3)NC(=O)[C@H](Cc3ccc(O)cc3)NC2=O)c1` [Compound 2736] ({CH2CO}-[Dap]Y(Carboxymethyl)D[Phe(3-Me)]Y[Bip]Y[Orn][dL][Dab][Cha]VTC[dD](Aun)-NH2; thioether N-14), the IC50 came to 114 nM.

With `Cc1cccc(C[C@@H]2NC(=O)[C@H](CC(=O)O)NC(=O)[C@H](Cc3ccc(OCC(=O)O)cc3)NC(=O)[C@H](CN)NC(=O)CSC[C@@H](C(=O)N[C@@H](CCN)C(=O)NCCCCCCCCCCC(=O)O)NC(=O)[C@H]([C@@H](C)O)NC(=O)[C@H](C(C)C)NC(=O)[C@H](CC3CCCCC3)NC(=O)[C@H](CCN)NC(=O)[C@@H](CC(C)C)NC(=O)[C@H](CCCN)NC(=O)[C@H](Cc3ccc(O)cc3)NC(=O)[C@H](Cc3ccc(-c4ccccc4)cc3)NC(=O)[C@H](CC(C)C)NC2=O)c1` [Compound 2737] ({CH2CO}-[Dap]Y(Carboxymethyl)D[Phe(3-Me)]L[Bip]Y[Orn][dL][Dab][Cha]VTC[Dab][Aun]-OH; thioether N-14), the IC50 was found to be 28.8 nM.

For `Cc1cccc(C[C@@H]2NC(=O)[C@H](CC(=O)O)NC(=O)[C@H](Cc3ccc(O)cc3)NC(=O)[C@H](CC(N)=O)NC(=O)CSC[C@@H](C(=O)N[C@@H](CCN)C(=O)NCCCCCCCCCCC(=O)O)NC(=O)[C@H]([C@@H](C)O)NC(=O)[C@H](C(C)C)NC(=O)[C@H](CC3CCCCC3)NC(=O)[C@H](CCN)NC(=O)[C@@H](CC(C)C)NC(=O)[C@H](CCCN)NC(=O)[C@H](Cc3ccc(O)cc3)NC(=O)[C@H](Cc3ccc(-c4ccccc4)cc3)NC(=O)[C@H](C(C)C)NC2=O)c1` [Compound 2738] ({CH2CO}-NYD[Phe(3-Me)]V[Bip]Y[Orn][dL][Dab][Cha]VTC[Dab][Aun]-OH; thioether N-14), the IC50 came to 63.2 nM.

Regarding `Cc1cccc(C[C@@H]2NC(=O)[C@H](CC(=O)O)NC(=O)[C@H](Cc3ccc(OCC(=O)O)cc3)NC(=O)[C@H](CC(N)=O)NC(=O)CSC[C@@H](C(=O)N[C@@H](CCN)C(=O)NCCCCCCCCCCC(=O)O)NC(=O)[C@H]([C@@H](C)O)NC(=O)[C@H](C(C)C)NC(=O)[C@H](CC3CCCCC3)NC(=O)[C@H](CCN)NC(=O)[C@@H](CC(C)C)NC(=O)[C@H](CCCN)NC(=O)[C@H](Cc3ccc(O)cc3)NC(=O)[C@H](Cc3ccc(-c4ccccc4)cc3)NC(=O)[C@H](C(C)C)NC2=O)c1` [Compound 2739] ({CH2CO}-NY(Carboxymethyl)D[Phe(3-Me)]V[Bip]Y[Orn][dL][Dab][Cha]VTC[Dab][Aun]-OH; thioether N-14), the IC50 was determined as 18.9 nM.

Regarding `Cc1cccc(C[C@@H]2NC(=O)[C@H](CC(=O)O)NC(=O)[C@H](Cc3cccnc3)NC(=O)[C@H](CC(N)=O)NC(=O)CSC[C@@H](C(=O)N[C@@H](CCN)C(=O)NCCCCCCCCCCC(=O)O)NC(=O)[C@H]([C@@H](C)O)NC(=O)[C@H](C(C)C)NC(=O)[C@H](CC3CCCCC3)NC(=O)[C@H](CCN)NC(=O)[C@@H](CC(C)C)NC(=O)[C@H](CCCN)NC(=O)[C@H](Cc3ccc(O)cc3)NC(=O)[C@H](Cc3ccc(-c4ccccc4)cc3)NC(=O)[C@H](C(C)C)NC2=O)c1` [Compound 2740] ({CH2CO}-N[3Pal]D[Phe(3-Me)]V[Bip]Y[Orn][dL][Dab][Cha]VTC[Dab][Aun]-OH; thioether N-14), the IC50 was found to be 19.7 nM.

Take `CC(C)C[C@H]1NC(=O)[C@H](CCCN)NC(=O)[C@H](Cc2ccc(O)cc2)NC(=O)[C@H](Cc2ccc(-c3ccccc3)cc2)NC(=O)[C@H](C(C)C)NC(=O)[C@H](Cc2c[nH]c3ccccc23)NC(=O)[C@H](CC(=O)O)NC(=O)[C@H](Cc2ccc(OCC(=O)O)cc2)NC(=O)[C@H](Cc2ccncc2)NC(=O)CSC[C@@H](C(=O)N[C@@H](CCN)C(=O)NCCCCCCCCCCC(=O)O)NC(=O)[C@H]([C@@H](C)O)NC(=O)[C@H](C(C)C)NC(=O)[C@H](CC2CCCCC2)NC(=O)[C@H](CCN)NC1=O` [Compound 2741] ({CH2CO}-[4Pal]Y(Carboxymethyl)DWV[Bip]Y[Orn][dL][Dab][Cha]VTC[Dab][Aun]-OH; thioether N-14): the IC50 stood at 54.3 nM.

In the case of `CC(C)C[C@@H]1NC(=O)[C@H](CCN)NC(=O)[C@@H](CC(C)C)NC(=O)[C@H](CCCN)NC(=O)[C@H](Cc2ccc(O)cc2)NC(=O)[C@H](Cc2ccc(-c3ccccc3)cc2)NC(=O)[C@H](C(C)C)NC(=O)[C@H](Cc2c[nH]c3ccccc23)NC(=O)[C@H](CC(=O)O)NC(=O)[C@H](Cc2ccc(OCC(=O)O)cc2)NC(=O)[C@H](Cc2ccncc2)NC(=O)CSC[C@@H](C(=O)N[C@@H](CCN)C(=O)NCCCCCCCCCCC(=O)O)NC(=O)[C@H]([C@@H](C)O)NC(=O)[C@H](C(C)C)NC1=O` [Compound 2742] ({CH2CO}-[4Pal]Y(Carboxymethyl)DWV[Bip]Y[Orn][dL][Dab]LVTC[Dab][Aun]-OH; thioether N-14), the IC50 amounted to 133 nM.
